Results published in ChEMBL document CHEMBL1146209, “In-silico fragment-based identification of novel angiogenesis inhibitors” (Bioorg Med Chem Lett, 2007).
pIC50: −log10 of the molar value.

system: HUVEC; assay: Cytotoxicity against HUVEC after 24 hrs by MTT assay; format: cell-based; conditions: Homo sapiens

In order of falling pIC50:
1. Clc1ccc2c(NC3CCC(NC4CCCCC4)CC3)ccnc2c1 (centres undefined)  4.89
2. O=C1c2ccccc2C(=O)c2c1oc1c2ccc2ccccc21  4.20
3. O=S(=O)(Nc1nccs1)c1ccc(Nc2ccnc3cc(Cl)ccc23)cc1  4.13
4. O=C1c2ccccc2C(=O)C(CCCc2ccc(Oc3ccccc3)cc2)C1O (centres undefined)  4.12
5. Oc1ccc(Nc2ccnc3cc(Cl)ccc23)cc1  4.09
6. Clc1ccc(Nc2ccnc3cc(Cl)ccc23)cc1  4.06
7. O=c1c(-c2ccc(O)cc2)coc2cc(O)cc(O)c12 [GENISTEIN]  4.06
8. O=C(O)c1ccc(Nc2ccnc3cc(Cl)ccc23)cc1O  4.05
9. COc1ccc(CC(N)C(=O)N(C)C2C(CO)OC(n3cnc4c(N(C)C)ncnc43)C2O)cc1 (centres undefined)  4.00
